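Where inhibition never reached the appropriate level, the endpoint shown equals the highest concentration tested. Otherwise, values were interpolated linearly from a five-concentration, 48-hour dose response in 96-well plates. TGI marks complete inhibition of growth.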
Legend:
Test in all cases: NCI tumour cell line growth inhibition, 48 h
[1] = tested on: MDA-N
[2] = tested on: SNB-19 CNS
[3] = tested on: SNB-75 CNS
[4] = tested on: 786-0 renal
[5] = tested on: COLO 205 colon
[6] = tested on: HS 578T breast
[7] = tested on: MDA-MB-435
[8] = tested on: MCF7 breast
[9] = tested on: HT29 colon
[10] = tested on: SF-295 CNS
[11] = tested on: A549 NSCLC
[12] = tested on: CCRF-CEM leukemia
[13] = tested on: RPMI-8226 leukemia
[14] = tested on: U251 CNS
[15] = tested on: LOX IMVI melanoma
[16] = tested on: NCI-H522 lung
[17] = tested on: KM12 colon
[18] = tested on: NCI-H460 lung
[19] = tested on: UACC-62 melanoma
[20] = tested on: SF-539 CNS
[21] = tested on: NCI-H23 lung
[22] = tested on: IGROV1 ovarian
[23] = tested on: CAKI-1 renal
[24] = tested on: SK-MEL-28 melanoma
[25] = tested on: OVCAR-5 ovarian
[26] = tested on: M14 melanoma
[27] = tested on: SR leukemia
[28] = tested on: SK-OV-3 ovarian
[29] = tested on: EKVX NSCLC
[30] = tested on: HCT-15 colon
[31] = tested on: SW-620 colon
[32] = tested on: MALME-3M melanoma
[33] = tested on: ACHN renal
[34] = tested on: HOP-62 NSCLC
[35] = tested on: NCI/ADR-RES ovarian
[36] = tested on: RXF 393 renal
[37] = tested on: K-562 leukemia
[38] = tested on: OVCAR-4 ovarian
[39] = tested on: HCC-2998 colon
[40] = tested on: T-47D breast
[41] = tested on: MDA-MB-231 breast
[42] = tested on: A498 renal
[43] = tested on: OVCAR-3 ovarian
[44] = tested on: SK-MEL-5 melanoma
[45] = tested on: BT-549 breast
[46] = tested on: HOP-92 NSCLC
[47] = tested on: PC-3 prostate
[48] = tested on: SN12C renal
[49] = tested on: NCI-H226 lung
[50] = tested on: UACC-257 melanoma
[51] = tested on: TK-10 renal
[52] = tested on: HL-60(TB) leukemia
[53] = tested on: UO-31 renal
[54] = tested on: SF-268 CNS
[55] = tested on: SK-MEL-2 melanoma
[56] = tested on: HCT-116 colon
[57] = tested on: OVCAR-8 ovarian
[58] = tested on: MOLT-4 leukemia
[59] = tested on: DU-145 prostate

SMILES: Nc1ccc(Cc2ccc(N)c(C(=O)O)c2)cc1C(=O)O
- TGI [1]: > 100 µM
- TGI [2]: > 100 µM
- TGI [3]: > 100 µM
- TGI [4]: > 100 µM
- TGI [5]: > 100 µM
- TGI [6]: > 100 µM
- TGI [7]: > 100 µM
- TGI [8]: > 100 µM
- TGI [9]: > 100 µM
- TGI [10]: > 100 µM
- TGI [11]: > 100 µM
- TGI [12]: > 100 µM
- TGI [13]: > 100 µM
- TGI [14]: > 100 µM
- TGI [15]: > 100 µM
- TGI [16]: > 100 µM
- TGI [17]: > 100 µM
- TGI [18]: > 100 µM
- TGI [19]: > 100 µM
- TGI [20]: > 100 µM
- TGI [21]: > 100 µM
- TGI [22]: > 100 µM
- TGI [23]: > 100 µM
- TGI [24]: > 100 µM
- TGI [25]: > 100 µM
- TGI [26]: > 100 µM
- TGI [27]: > 100 µM
- TGI [28]: > 100 µM
- TGI [29]: > 100 µM
- TGI [30]: > 100 µM
- TGI [31]: > 100 µM
- TGI [32]: > 100 µM
- TGI [33]: > 100 µM
- TGI [34]: > 100 µM
- TGI [35]: > 100 µM
- TGI [36]: > 100 µM
- TGI [37]: > 100 µM
- TGI [38]: > 100 µM
- TGI [39]: > 100 µM
- TGI [40]: > 100 µM
- TGI [41]: > 100 µM
- TGI [42]: > 100 µM
- TGI [43]: > 100 µM
- TGI [44]: > 100 µM
- TGI [45]: > 100 µM
- TGI [46]: > 100 µM
- TGI [47]: > 100 µM
- TGI [48]: > 100 µM
- TGI [49]: > 100 µM
- TGI [50]: > 100 µM
- TGI [51]: > 100 µM
- TGI [52]: > 100 µM
- TGI [53]: > 100 µM
- TGI [54]: > 100 µM
- TGI [55]: > 100 µM
- TGI [56]: > 100 µM
- TGI [57]: > 100 µM

SMILES: CN(CCCNC(=O)c1nn(-c2ccccc2)c2c1Cc1ccccc1-2)CCCNC(=O)c1nn(-c2ccccc2)c2c1Cc1ccccc1-2
- TGI [1]: 2.66 µM
- TGI [2]: 3.07 µM
- TGI [4]: 2.9 µM
- TGI [5]: 2.8 µM
- TGI [7]: 2.87 µM
- TGI [8]: 2.99 µM
- TGI [9]: 3.42 µM
- TGI [11]: 3.58 µM
- TGI [12]: 2.42 µM
- TGI [58]: 2.95 µM
- TGI [13]: 4.22 µM
- TGI [14]: 2.82 µM
- TGI [16]: 2.63 µM
- TGI [18]: 3.26 µM
- TGI [59]: 3.21 µM
- TGI [19]: 3.26 µM
- TGI [20]: 2.97 µM
- TGI [21]: 3.03 µM
- TGI [22]: 3.07 µM
- TGI [23]: 2.46 µM
- TGI [24]: 2.77 µM
- TGI [25]: 3.26 µM
- TGI [26]: 2.61 µM
- TGI [27]: 1.42 µM
- TGI [28]: 3.23 µM
- TGI [30]: 3.1 µM
- TGI [31]: 2.63 µM
- TGI [32]: 2.91 µM
- TGI [33]: 3.12 µM
- TGI [35]: 3.37 µM
- TGI [37]: 2.17 µM
- TGI [38]: 1.85 µM
- TGI [39]: 2.77 µM
- TGI [40]: 3.6 µM
- TGI [41]: 2.99 µM
- TGI [42]: 3.15 µM
- TGI [43]: 3.13 µM
- TGI [44]: 3.02 µM
- TGI [45]: 3.21 µM
- TGI [46]: 3.26 µM
- TGI [47]: 3.09 µM
- TGI [48]: 3.2 µM
- TGI [50]: 3.28 µM
- TGI [51]: 3.22 µM
- TGI [52]: 2.5 µM
- TGI [53]: 3.29 µM
- TGI [54]: 3.31 µM
- TGI [55]: 2.69 µM
- TGI [56]: 2.87 µM
- TGI [57]: 3.39 µM

SMILES: O=c1oc2ccccc2c(O)c1Cc1ccccc1Cc1c(O)c2ccccc2oc1=O
- TGI [1]: > 100 µM
- TGI [2]: > 100 µM
- TGI [3]: > 100 µM
- TGI [4]: > 100 µM
- TGI [5]: > 100 µM
- TGI [6]: > 100 µM
- TGI [7]: > 100 µM
- TGI [8]: > 100 µM
- TGI [9]: > 100 µM
- TGI [10]: > 100 µM
- TGI [11]: > 100 µM
- TGI [12]: > 100 µM
- TGI [58]: > 100 µM
- TGI [13]: > 100 µM
- TGI [14]: > 100 µM
- TGI [15]: > 100 µM
- TGI [16]: > 100 µM
- TGI [17]: > 100 µM
- TGI [18]: > 100 µM
- TGI [59]: > 100 µM
- TGI [19]: > 100 µM
- TGI [20]: > 100 µM
- TGI [21]: > 100 µM
- TGI [22]: > 100 µM
- TGI [23]: > 100 µM
- TGI [24]: > 100 µM
- TGI [25]: > 100 µM
- TGI [26]: > 100 µM
- TGI [28]: > 100 µM
- TGI [29]: > 100 µM
- TGI [30]: > 100 µM
- TGI [31]: > 100 µM
- TGI [32]: > 100 µM
- TGI [33]: > 100 µM
- TGI [34]: > 100 µM
- TGI [35]: > 100 µM
- TGI [36]: > 100 µM
- TGI [37]: > 100 µM
- TGI [38]: > 100 µM
- TGI [40]: > 100 µM
- TGI [41]: > 100 µM
- TGI [42]: > 100 µM
- TGI [43]: > 100 µM
- TGI [44]: > 100 µM
- TGI [45]: > 100 µM
- TGI [46]: > 100 µM
- TGI [47]: > 100 µM
- TGI [48]: > 100 µM
- TGI [49]: > 100 µM
- TGI [50]: > 100 µM
- TGI [51]: > 100 µM
- TGI [52]: > 100 µM
- TGI [53]: > 100 µM
- TGI [54]: > 100 µM
- TGI [55]: > 100 µM
- TGI [56]: > 100 µM
- TGI [57]: > 100 µM

SMILES: C[C@]12O[C@@]3(C)O[C@@]3(C)[C@]3(C)O[C@]3(C)[C@@]1(C)O2
- TGI [1]: > 100 µM
- TGI [2]: > 100 µM
- TGI [3]: 74.6 µM
- TGI [4]: > 100 µM
- TGI [5]: > 100 µM
- TGI [6]: > 100 µM
- TGI [7]: > 100 µM
- TGI [8]: > 100 µM
- TGI [9]: > 100 µM
- TGI [10]: > 100 µM
- TGI [11]: > 100 µM
- TGI [58]: > 100 µM
- TGI [14]: > 100 µM
- TGI [15]: > 100 µM
- TGI [16]: > 100 µM
- TGI [17]: > 100 µM
- TGI [59]: > 100 µM
- TGI [19]: > 100 µM
- TGI [21]: > 100 µM
- TGI [23]: > 100 µM
- TGI [24]: > 100 µM
- TGI [25]: > 100 µM
- TGI [26]: > 100 µM
- TGI [27]: > 100 µM
- TGI [28]: > 100 µM
- TGI [29]: > 100 µM
- TGI [30]: > 100 µM
- TGI [32]: > 100 µM
- TGI [33]: > 100 µM
- TGI [34]: > 100 µM
- TGI [35]: > 100 µM
- TGI [37]: > 100 µM
- TGI [38]: > 100 µM
- TGI [40]: > 100 µM
- TGI [41]: > 100 µM
- TGI [42]: > 100 µM
- TGI [44]: > 100 µM
- TGI [45]: > 100 µM
- TGI [46]: > 100 µM
- TGI [47]: > 100 µM
- TGI [48]: > 100 µM
- TGI [49]: > 100 µM
- TGI [50]: > 100 µM
- TGI [51]: > 100 µM
- TGI [53]: > 100 µM
- TGI [54]: > 100 µM
- TGI [55]: > 100 µM
- TGI [56]: > 100 µM
- TGI [57]: > 100 µM
